ChEMBL document CHEMBL5346927, “Discovery of a novel 1H-pyrazole- [3,4-b] pyridine-based lysine demethylase 5B inhibitor with potential anti-prostate cancer activity that perturbs the phosphoinositide 3-kinase/AKT pathway” (Eur J Med Chem, 2023)
Calls of active or inactive are those of the source. The rule behind the calls is not given here.

Key:
[1] = target: Ubiquitin carboxyl-terminal hydrolase 7 (Homo sapiens) (UniProt Q93009); test: Inhibition of USP7 (unknown origin) at 10 uM relative to control
[2] = target: Bromodomain-containing protein 4 (Homo sapiens) (UniProt O60885); test: Inhibition of BRD4 (unknown origin) at 10 uM relative to control
[3] = target: Lysine-specific histone demethylase 1A (Homo sapiens) (UniProt O60341); test: Inhibition of LSD1 (unknown origin) at 10 uM relative to control
[4] = target: S-phase kinase-associated protein 2 (Homo sapiens) (UniProt Q13309); test: Inhibition of SKP2 (unknown origin) at 10 uM relative to control
[5] = target: T1, Protein deacetylase HDAC6 (Homo sapiens) (UniProt Q9UBN7); test: Inhibition of HDAC6 (unknown origin) at 10 uM relative to control
T1 sequence (whole entry): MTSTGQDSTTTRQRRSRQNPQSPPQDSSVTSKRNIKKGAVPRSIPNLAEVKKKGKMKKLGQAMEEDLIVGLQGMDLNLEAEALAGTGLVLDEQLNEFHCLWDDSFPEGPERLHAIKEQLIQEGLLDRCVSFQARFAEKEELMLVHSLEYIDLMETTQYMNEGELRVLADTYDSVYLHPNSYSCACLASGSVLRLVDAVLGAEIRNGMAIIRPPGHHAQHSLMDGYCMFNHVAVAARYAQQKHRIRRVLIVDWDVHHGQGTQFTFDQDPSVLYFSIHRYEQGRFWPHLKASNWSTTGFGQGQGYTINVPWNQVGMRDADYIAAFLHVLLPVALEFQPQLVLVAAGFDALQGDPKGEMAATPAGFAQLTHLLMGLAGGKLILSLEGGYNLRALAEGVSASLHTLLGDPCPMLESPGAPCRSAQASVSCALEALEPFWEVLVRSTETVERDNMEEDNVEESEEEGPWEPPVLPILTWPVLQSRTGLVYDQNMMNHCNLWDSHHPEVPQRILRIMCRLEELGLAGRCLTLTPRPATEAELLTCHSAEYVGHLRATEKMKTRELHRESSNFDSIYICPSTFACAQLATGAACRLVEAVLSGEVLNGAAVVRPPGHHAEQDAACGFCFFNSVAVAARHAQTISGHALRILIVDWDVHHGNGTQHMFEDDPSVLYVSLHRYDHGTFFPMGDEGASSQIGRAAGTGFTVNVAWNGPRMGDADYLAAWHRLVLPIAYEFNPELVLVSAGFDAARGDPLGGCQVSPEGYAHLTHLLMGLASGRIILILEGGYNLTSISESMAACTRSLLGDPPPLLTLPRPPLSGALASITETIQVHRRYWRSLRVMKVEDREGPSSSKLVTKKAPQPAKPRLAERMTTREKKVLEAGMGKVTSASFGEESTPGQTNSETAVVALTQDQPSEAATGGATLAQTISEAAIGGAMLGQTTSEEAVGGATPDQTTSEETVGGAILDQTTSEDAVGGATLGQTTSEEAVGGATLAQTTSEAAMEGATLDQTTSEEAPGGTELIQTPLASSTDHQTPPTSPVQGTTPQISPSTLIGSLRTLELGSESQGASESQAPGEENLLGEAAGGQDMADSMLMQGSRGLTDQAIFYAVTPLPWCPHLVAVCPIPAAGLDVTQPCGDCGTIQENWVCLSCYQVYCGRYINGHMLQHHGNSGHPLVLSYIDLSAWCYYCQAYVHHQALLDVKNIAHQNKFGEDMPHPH

[6] = target: T2, Lysine-specific demethylase 5B (Homo sapiens, UniProt Q9UGL1); test: Inhibition of KDM5B (unknown origin) at 10 uM relative to control
PC-3 [7] = test: Antitumor activity against human PC-3 cells xenografted in BALB/C nude mice assessed as decrease in tumor weight at 25 mg/kg, IG administered for 25 days; format: functional, organism-based; details: time 25.0 day
[8] = Toxicity in BALB/C nude mouse xenografted with human PC-3 cells assessed as reduction in prostate gland cells at 25 mg/kg, IG administered for 25 days by H&E staining based analysis; format: organism-based; details: in vivo, po, 600 h, time 25 day
[9] = Toxicity in BALB/C nude mouse xenografted with human PC-3 cells assessed as spleen damage at 25 mg/kg, IG administered for 25 days by H&E staining based analysis; format: organism-based; details: in vivo, po, 600 h, time 25 day
[10] = Toxicity in BALB/C nude mouse xenografted with human PC-3 cells assessed as liver damage at 25 mg/kg, IG administered for 25 days by H&E staining based analysis; format: organism-based; details: in vivo, po, 600 h, time 25 day
[11] = Toxicity in BALB/C nude mouse xenografted with human PC-3 cells assessed as effect on body weight at 25 mg/kg, IG administered for 25 days; format: organism-based; details: in vivo, po, 600 h, time 25 day
[12] = Toxicity in BALB/C nude mouse xenografted with human PC-3 cells assessed as irregular fissures at 25 mg/kg, IG administered for 25 days by H&E staining based analysis; format: organism-based; details: in vivo, po, 600 h, time 25 day
[13] = Toxicity in BALB/C nude mouse xenografted with human PC-3 cells assessed as indistinct prostate tube wall at 25 mg/kg, IG administered for 25 days by H&E staining based analysis; format: organism-based; details: in vivo, po, 600 h, time 25 day
[14] = Toxicity in BALB/C nude mouse xenografted with human PC-3 cells assessed as decrease in cell density at 25 mg/kg, IG administered for 25 days by H&E staining based analysis; format: organism-based; details: in vivo, po, 600 h, time 25 day
PC-3 [15] = test: Antitumor activity against human PC-3 cells xenografted in BALB/C nude mice assessed as decrease in tumor volume at 25 to 50 mg/kg, IG administered for 25 days; format: functional, organism-based; details: dose 25-50 mg/kg, time 25.0 day
[16] = Toxicity in BALB/C nude mouse xenografted with human PC-3 cells assessed as heart damage at 25 mg/kg, IG administered for 25 days by H&E staining based analysis; format: organism-based; details: in vivo, po, 600 h, time 25 day
LNCaP = test: Antiproliferative activity against human LNCaP cells assessed as inhibition of cell proliferation incubated for 72 hrs by MTT assay; format: functional, cell-based
PC-3 [17] = test: Inhibition of PI3K/AKT pathway in human PC-3 cells assessed as decrease in P85 level at 20 uM by Western blot analysis; format: cell-based
PC-3 [18] = test: Antitumor activity against human PC-3 cells assessed as inhibition of cell proliferation incubated for 72 hrs by MTT assay; format: functional, cell-based; details: PC-3, 72 h
[19] = target: T2, Lysine-specific demethylase 5B; test: Inhibition of KDM5B (unknown origin)
DU-145 = test: Antiproliferative activity against human DU-145 cells assessed as inhibition of cell proliferation incubated for 72 hrs by MTT assay; format: functional, cell-based; details: DU-145, 72 h
PC-3 [20] = test: Inhibition of PI3K/AKT pathway in human PC-3 cells assessed as decrease in AKT phosphorylation at Ser473 residue at 20 uM by Western blot analysis; format: cell-based
MCF7 = test: Antitumor activity against human MCF7 cells assessed as inhibition of cell proliferation incubated for 72 hrs by MTT assay; format: functional, cell-based; details: MCF7, 72 h
HepG2 = test: Antitumor activity against human HepG2 cells assessed as inhibition of cell proliferation incubated for 72 hrs by MTT assay; format: functional, cell-based; details: HepG2, 72 h
MGC-803 = test: Antitumor activity against human MGC-803 cells assessed as inhibition of cell proliferation incubated for 72 hrs by MTT assay; format: functional, cell-based; details: MGC-803, 72 h
PC-3 [21] = test: Inhibition of PI3K/AKT pathway in human PC-3 cells assessed as decrease in P110alpha level at 20 uM by Western blot analysis; format: cell-based
PC-3 [22] = test: Inhibition of PI3K/AKT pathway in human PC-3 cells assessed as decrease in AKT phosphorylation at Thr308 residue at 20 uM by Western blot analysis; format: cell-based

T2 sequence (Q9UGL1 whole entry): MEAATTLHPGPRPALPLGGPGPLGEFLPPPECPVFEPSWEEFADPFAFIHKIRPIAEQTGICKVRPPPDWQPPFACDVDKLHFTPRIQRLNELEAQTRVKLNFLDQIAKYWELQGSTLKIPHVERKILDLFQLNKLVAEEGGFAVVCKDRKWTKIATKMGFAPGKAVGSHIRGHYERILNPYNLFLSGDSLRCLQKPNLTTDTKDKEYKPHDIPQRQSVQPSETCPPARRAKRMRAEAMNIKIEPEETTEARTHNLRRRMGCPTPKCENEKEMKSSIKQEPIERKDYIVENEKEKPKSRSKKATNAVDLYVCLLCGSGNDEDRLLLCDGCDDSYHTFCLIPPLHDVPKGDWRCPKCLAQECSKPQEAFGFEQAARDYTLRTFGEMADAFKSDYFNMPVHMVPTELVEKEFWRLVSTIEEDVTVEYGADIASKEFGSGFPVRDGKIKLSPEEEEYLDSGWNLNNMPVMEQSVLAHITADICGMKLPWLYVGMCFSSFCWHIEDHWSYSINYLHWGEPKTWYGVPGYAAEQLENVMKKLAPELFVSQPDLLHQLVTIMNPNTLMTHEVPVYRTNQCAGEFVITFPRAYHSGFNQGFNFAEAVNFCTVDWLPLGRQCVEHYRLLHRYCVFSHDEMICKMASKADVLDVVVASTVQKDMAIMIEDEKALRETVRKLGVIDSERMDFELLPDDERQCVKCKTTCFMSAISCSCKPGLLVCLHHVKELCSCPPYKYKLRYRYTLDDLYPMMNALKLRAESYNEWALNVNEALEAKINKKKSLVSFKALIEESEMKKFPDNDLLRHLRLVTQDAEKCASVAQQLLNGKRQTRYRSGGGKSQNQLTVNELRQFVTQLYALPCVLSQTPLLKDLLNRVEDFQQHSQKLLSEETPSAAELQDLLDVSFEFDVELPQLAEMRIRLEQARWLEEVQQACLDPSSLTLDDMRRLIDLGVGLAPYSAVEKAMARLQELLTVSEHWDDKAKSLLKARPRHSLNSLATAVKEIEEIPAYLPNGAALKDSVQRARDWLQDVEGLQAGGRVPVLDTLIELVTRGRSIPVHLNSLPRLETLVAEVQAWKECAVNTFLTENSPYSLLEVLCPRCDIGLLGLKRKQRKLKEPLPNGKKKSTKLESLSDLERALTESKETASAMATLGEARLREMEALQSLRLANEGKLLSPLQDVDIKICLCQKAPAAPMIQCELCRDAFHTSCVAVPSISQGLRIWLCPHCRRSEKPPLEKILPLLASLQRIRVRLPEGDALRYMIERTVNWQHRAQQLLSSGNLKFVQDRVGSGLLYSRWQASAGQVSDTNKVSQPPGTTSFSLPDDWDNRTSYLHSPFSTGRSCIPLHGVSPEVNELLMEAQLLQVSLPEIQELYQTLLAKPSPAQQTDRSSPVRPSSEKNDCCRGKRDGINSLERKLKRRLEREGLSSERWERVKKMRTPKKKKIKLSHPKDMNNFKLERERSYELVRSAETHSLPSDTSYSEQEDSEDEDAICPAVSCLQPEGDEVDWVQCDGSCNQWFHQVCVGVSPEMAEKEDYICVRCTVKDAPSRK
Ubiquitin carboxyl-terminal hydrolase 7 (Homo sapiens), sequence (Q93009 whole entry, looked up): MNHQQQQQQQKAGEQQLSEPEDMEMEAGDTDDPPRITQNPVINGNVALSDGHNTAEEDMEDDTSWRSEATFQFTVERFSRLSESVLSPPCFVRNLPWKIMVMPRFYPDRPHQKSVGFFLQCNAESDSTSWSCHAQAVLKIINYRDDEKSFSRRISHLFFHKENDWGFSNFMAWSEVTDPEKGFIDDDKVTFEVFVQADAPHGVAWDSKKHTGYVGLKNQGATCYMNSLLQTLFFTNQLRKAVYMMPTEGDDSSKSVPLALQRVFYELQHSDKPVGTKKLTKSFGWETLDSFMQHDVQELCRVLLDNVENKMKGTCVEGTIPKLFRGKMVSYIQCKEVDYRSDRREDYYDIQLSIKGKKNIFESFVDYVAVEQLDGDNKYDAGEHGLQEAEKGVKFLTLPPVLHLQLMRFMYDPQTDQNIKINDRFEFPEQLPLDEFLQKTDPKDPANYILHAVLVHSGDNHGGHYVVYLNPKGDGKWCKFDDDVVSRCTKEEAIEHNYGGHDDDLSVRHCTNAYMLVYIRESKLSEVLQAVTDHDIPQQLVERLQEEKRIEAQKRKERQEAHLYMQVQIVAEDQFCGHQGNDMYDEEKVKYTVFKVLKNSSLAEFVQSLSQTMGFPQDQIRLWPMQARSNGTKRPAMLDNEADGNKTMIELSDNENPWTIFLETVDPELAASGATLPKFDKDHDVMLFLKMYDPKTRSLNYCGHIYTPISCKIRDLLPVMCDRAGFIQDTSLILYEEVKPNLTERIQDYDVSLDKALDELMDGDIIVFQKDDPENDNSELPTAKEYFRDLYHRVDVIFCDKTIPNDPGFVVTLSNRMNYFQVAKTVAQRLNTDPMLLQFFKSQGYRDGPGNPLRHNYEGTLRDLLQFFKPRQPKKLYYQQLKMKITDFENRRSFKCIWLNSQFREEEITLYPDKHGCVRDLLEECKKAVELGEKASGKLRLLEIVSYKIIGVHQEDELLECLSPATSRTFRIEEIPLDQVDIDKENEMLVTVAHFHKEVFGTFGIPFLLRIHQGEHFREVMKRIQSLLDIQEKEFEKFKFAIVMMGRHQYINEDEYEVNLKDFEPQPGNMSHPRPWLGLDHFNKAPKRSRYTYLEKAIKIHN
S-phase kinase-associated protein 2 (Homo sapiens), sequence (Q13309 whole entry): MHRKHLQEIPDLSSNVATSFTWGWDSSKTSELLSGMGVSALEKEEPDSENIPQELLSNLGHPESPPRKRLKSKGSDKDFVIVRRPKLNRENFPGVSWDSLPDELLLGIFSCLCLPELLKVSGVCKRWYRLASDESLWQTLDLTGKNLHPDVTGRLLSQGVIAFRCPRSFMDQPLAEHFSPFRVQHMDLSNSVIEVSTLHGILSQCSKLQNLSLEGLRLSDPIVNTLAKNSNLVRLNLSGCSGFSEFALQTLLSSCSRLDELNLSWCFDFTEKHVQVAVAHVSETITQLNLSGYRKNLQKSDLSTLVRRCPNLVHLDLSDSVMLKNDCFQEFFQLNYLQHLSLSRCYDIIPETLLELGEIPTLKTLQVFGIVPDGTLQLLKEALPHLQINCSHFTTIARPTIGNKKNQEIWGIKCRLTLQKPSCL

Compound: CC(C)n1ncc2c(C(=O)NCc3cn(Cc4ccccc4)nn3)cccc21
- inhibition [1]: 16%
- inhibition [2]: 9%
- inhibition [3]: 31%
- inhibition [4]: 11%
- inhibition [5]: 27%
- inhibition [6]: 56%

Compound: COc1cccc2c1C(=O)c1c(O)c3c(c(O)c1C2=O)C[C@@](O)(C(=O)CO)C[C@@H]3O[C@H]1C[C@H](N)[C@H](O)[C@H](C)O1 [DOXORUBICIN]
- Activity (PC-3 [7]): Active
- Activity [8]: Toxic
- Activity [9]: Toxic
- Activity [10]: Toxic
- Activity [11]: Toxic
- Activity [12]: Toxic
- Activity [13]: Toxic
- Activity [14]: Toxic
- Activity (PC-3 [15]): Active
- Activity [16]: Toxic

Compound: CC(C)c1c(-c2ccccc2)[nH]c2c(C#N)cnn2c1=O
- IC50 (LNCaP): 29.6 µM
- inhibition (PC-3 [17]): Active
- IC50 (PC-3 [18]): 26.7 µM
- IC50 [19]: 0.011 µM
- IC50 (DU-145): 35.9 µM
- inhibition (PC-3 [20]): Active
- IC50 (MCF7): 35.4 µM
- IC50 (HepG2): 42.6 µM
- IC50 (MGC-803): 33.7 µM
- inhibition (PC-3 [21]): Active
- inhibition (PC-3 [22]): Active
